“And” between values parts separate entries of the source, which are not always exact repeats. Identical values can stand only once. Like-named read-outs stand apart in the source and are kept apart here.
What was measured:
expanded OPCs = assay: cells; conditions: for viability at 0.1 µM / viability at 1 µM / viability at 10 µM: Rattus norvegicus, 72 h
Method in brief: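 Expanded OPCs seeded at 10,000 cells/well in differentiation media, then exposed to NCC library compounds at 10, 1 and 0.1 µM (quadruplicate, 0.1% DMSO) for three days. Viability read as alamarBlue fluorescence (560/590 nm) after 4 h at 37 °C; tunicamycin 5 ng/ml served as toxicity control.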

[1] = test system: acutely dissociated and purified rat OPCs; assay: Acute OL differentiation assay (MBP expression/cell, immunofluorescent image quantification); type: cell-based; conditions: for activation at 0.4 µM / activation at 2 µM / activation at 10 µM / activation at 0.08 µM: Rattus norvegicus
Method in brief: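 Oligodendrocyte precursor cells were enriched from P6-P7 Sprague–Dawley rat brains by immunopanning (RAN-2 and GalC depletion, O4 selection), plated at 5000 cells/well in serum-free, mitogen-free differentiation media on PDL/laminin 96-well view plates, centrifuged at 200×g, and pre-incubated 1–2 h before test compounds were added in quadruplicate. On DIV4, cells were fixed, stained for MBP and DAPI, imaged automatically, and MBP expression per cell was quantified.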

[2] = alamarBlue viability of expanded OPCs, compound at 0.1 µM, relative to DMSO control
[3] = alamarBlue viability of expanded OPCs, compound at 1 µM, relative to DMSO control
[4] = alamarBlue viability of expanded OPCs, compound at 10 µM, relative to DMSO control
[5] = test compound at 2 uM, MBP expression relative to quetiapine, NCC library screen, sheet "All OLga data", read-out: 2 uM (% Quet)
[6] = 2 uM test compound, relative to quetiapine, sheet "All OLga data", read-out: OL differentiation, 2 uM (% Quet)
[7] = 10 uM test compound, relative to quetiapine, sheet "All OLga data", read-out: OL differentiation, 10 uM (% Quet)
[8] = test compound at 0.4 uM, NCC library screen, sheet "All OLga data", relative to quetiapine, read-out: 0.4 uM (% Quet)
[9] = test compound at 2 uM, NCC library screen, sheet "All OLga data", relative to quetiapine, read-out: 2 uM (% Quet)
[10] = test compound at 10 uM, MBP expression relative to quetiapine, NCC library screen, sheet "All OLga data", read-out: 10 uM (% Quet)
[11] = read-out: 0.1 µM (% DMSO), alamarBlue viability, NCC library compound at 0.1 µM, sheet "All Tox data"
[12] = read-out: 1 µM (% DMSO), alamarBlue viability, NCC library compound at 1 µM, sheet "All Tox data"
[13] = read-out: 10 µM (% DMSO), alamarBlue viability, NCC library compound at 10 µM, sheet "All Tox data"

Compound | 0.1 µM (% DMSO) (expanded OPCs; [2]) | 1 µM (% DMSO) (expanded OPCs; [3]) | 10 µM (% DMSO) (expanded OPCs; [4]) | activation at 2 µM [1, 6] [%] | activation at 0.4 µM [1, 8] [%] | activation at 2 µM [1, 9] [%] | viability at 0.1 µM (expanded OPCs; [11]) [%] | viability at 1 µM (expanded OPCs; [12]) [%] | viability at 10 µM (expanded OPCs; [13]) [%] | further results
COc1cc2nc(N3CCN(C(=O)C4COc5ccccc5O4)CC3)nc(N)c2cc1OC (centres unmarked) [Doxazosin] | 140.5 | 157.6 | 18.9 |  |  |  |  |  |  | activation at 0.4 µM ([1]; test compound at 0.4 uM, MBP expression relative to quetiapine, NCC library screen, sheet "All OLga data", read-out: 0.4 uM (% Quet)): 2%; activation at 2 µM [1, 5]: -27.2%
CN(C)CCC=C1c2ccccc2COc2ccccc21 [Doxepin] | 109.3 | 91.6 | 52.1 | 47.3 | 2.7 | 36 |  |  |  | viability at 0.1 µM (expanded OPCs; read-out: 0.1 µM (% DMSO), alamarBlue viability of expanded OPCs, compound at 0.1 µM, sheet All Tox data): 81.5%; viability at 1 µM (expanded OPCs; read-out: 1 µM (% DMSO), alamarBlue viability of expanded OPCs, compound at 1 µM, sheet All Tox data): 85%; viability at 10 µM (expanded OPCs; read-out: 10 µM (% DMSO), alamarBlue viability of expanded OPCs, compound at 10 µM, sheet All Tox data): 64.4%; activation at 10 µM [1, 7]: 37.1%
C[C@H]1c2cccc(O)c2C(=O)C2=C(O)[C@]3(O)C(=O)C(C(N)=O)=C(O)[C@@H](N(C)C)[C@@H]3[C@@H](O)[C@@H]21 [Doxycycline] | 95.2 | 91.4 | 82.8 |  |  |  |  |  |  | activation at 2 µM [1, 5]: 4.2%; activation at 10 µM [1, 10]: -18.6%
CN(C)CCOC(C)(c1ccccc1)c1ccccn1 (centres unmarked) [Doxylamine] |  |  |  | -9.7 |  |  | 96 | 86.6 | 75 | activation at 10 µM [1, 7]: 0.7%
O=C(CCCN1CC=C(n2c(=O)[nH]c3ccccc32)CC1)c1ccc(F)cc1 [Droperidol] |  |  |  | 7.3 |  |  | 90.8 | 97.2 | 71.6 | activation at 10 µM [1, 7]: -13.2%
CS(=O)(=O)c1ccc(-c2cc(Br)sc2-c2ccc(F)cc2)cc1 [DuP 697] |  |  |  |  | -42.3 | -109 | 89.6 | 114 | 10.7 | 
CNCC[C@H](Oc1cccc2ccccc12)c1cccs1 [Duloxetine] |  |  |  |  |  |  |  |  |  | 0.1 µM (% DMSO) (expanded OPCs): 56.7 % DMSO and 82.6 % DMSO; 1 µM (% DMSO) (expanded OPCs): 45.5 % DMSO; 10 µM (% DMSO) (expanded OPCs): 12.6 % DMSO; viability at 1 µM (expanded OPCs; read-out: 1 µM (% DMSO)): 30.3%; viability at 10 µM (expanded OPCs; read-out: 10 µM (% DMSO)): 9.7%; activation at 0.08 µM ([1]; read-out: 0.08 uM (% Quet)): -5.1%; activation at 0.4 µM ([1]; read-out: 0.4 uM (% Quet)): -12.9%; activation at 0.08 µM ([1]; read-out: OL differentiation, 0.08 uM (% Quet)): 18.3%; activation at 0.4 µM ([1]; read-out: OL differentiation, 0.4 uM (% Quet)): -7.6%
O=c1c2ccccc2[se]n1-c1ccccc1 [Ebselen] |  |  |  |  | -95.7 |  | 61.7 | 30.7 | 10.1 | activation at 0.08 µM ([1]; test compound at 0.08 uM, NCC library screen, sheet "All OLga data", relative to quetiapine, read-out: 0.08 uM (% Quet)): 131%
Clc1ccc(COC(Cn2ccnc2)c2ccc(Cl)cc2Cl)cc1 (centres unmarked) [Econazole] | 178.0 | 195.6 | 29.6 |  | 90 | -178 |  |  |  | 
CC[N+](C)(C)c1cccc(O)c1 [Edrophonium] |  |  |  |  |  | 10.5 | 93 | 91 | 100 | activation at 10 µM ([1]; test compound at 10 uM, NCC library screen, sheet "All OLga data", relative to quetiapine, read-out: 10 uM (% Quet)): 10.8%
O=C1Nc2ccc(Cl)cc2[C@@](C#CC2CC2)(C(F)(F)F)O1 [Efavirenz] |  |  |  | 40.9 |  |  | 90.4 | 85.6 | 16.8 | activation at 0.4 µM ([1]; 0.4 uM test compound, relative to quetiapine, sheet "All OLga data", read-out: OL differentiation, 0.4 uM (% Quet)): 3.8%
CCOC(=O)[C@H](CCc1ccccc1)N[C@@H](C)C(=O)N1CCC[C@H]1C(=O)O [Enalapril] | 90.6 | 90.6 | 87.6 |  |  |  |  |  |  | activation at 2 µM [1, 5]: 8.8%; activation at 10 µM [1, 10]: -8.9%
C[C@H](N[C@@H](CCc1ccccc1)C(=O)O)C(=O)N1CCC[C@H]1C(=O)O [Enalaprilat] |  |  |  |  |  |  |  |  |  | 0.1 µM (% DMSO) (expanded OPCs; alamarBlue viability, NCC library compound at 0.1 µM, sheet "All Tox data"): 92.9 % DMSO; 1 µM (% DMSO) (expanded OPCs; alamarBlue viability, NCC library compound at 1 µM, sheet "All Tox data"): 91.2 % DMSO; 10 µM (% DMSO) (expanded OPCs; alamarBlue viability, NCC library compound at 10 µM, sheet "All Tox data"): 83.0 % DMSO; OL differentiation, 2 uM (% Quet) ([1]; 2 uM test compound, relative to quetiapine, sheet "All OLga data"): -17.8 % Quet; OL differentiation, 10 uM (% Quet) ([1]; 10 uM test compound, relative to quetiapine, sheet "All OLga data"): -49.3 % Quet

From article PMC5011342, “A high throughput drug screening assay to identify compounds that promote oligodendrocyte differentiation using acutely dissociated and purified oligodendrocyte precursor cells” (BMC Research Notes, 2016)
